Experimental data: the NIST ThermoML archive (doi:10.1016/j.fluid.2010.10.028)

Assay: xn = mol fraction of the nth substance listed
Details: Liquid, Vibrating tube method

CC(C)=O [acetone] + CCCCCCC
Details	mass density [kg/m3]
367.48 K, 69840 kPa, x1 = 0.8992	761.04
367.48 K, 74790 kPa, x1 = 0.7024	736.93
367.48 K, 74820 kPa, x1 = 0.4	764.83
367.48 K, 74820 kPa, x1 = 0.8992	764.83
367.48 K, 74880 kPa, x1 = 0.611	727.57
367.48 K, 79790 kPa, x1 = 0.4	768.48
367.48 K, 79790 kPa, x1 = 0.8992	768.48
367.48 K, 84760 kPa, x1 = 0.7024	743.91
367.48 K, 84780 kPa, x1 = 0.4	772.02
367.48 K, 84780 kPa, x1 = 0.8992	772.02
367.48 K, 84860 kPa, x1 = 0.611	734.42
367.48 K, 89740 kPa, x1 = 0.4	775.41
367.48 K, 89740 kPa, x1 = 0.8992	775.41
367.48 K, 89840 kPa, x1 = 0.611	737.67
367.48 K, 94810 kPa, x1 = 0.611	740.81
367.48 K, 99700 kPa, x1 = 0.4	781.91
367.48 K, 99700 kPa, x1 = 0.8992	781.91
367.48 K, 104670 kPa, x1 = 0.4	785.01
367.48 K, 104670 kPa, x1 = 0.8992	785.01
367.48 K, 104780 kPa, x1 = 0.611	746.78
367.48 K, 109630 kPa, x1 = 0.4	788.01
367.48 K, 109630 kPa, x1 = 0.8992	788.01
367.48 K, 114860 kPa, x1 = 0.611	752.48
367.48 K, 119560 kPa, x1 = 0.4	793.8
367.48 K, 119560 kPa, x1 = 0.8992	793.8
367.48 K, 119860 kPa, x1 = 0.611	755.19
367.48 K, 124530 kPa, x1 = 0.4	796.59
367.48 K, 124530 kPa, x1 = 0.8992	796.59
367.48 K, 129810 kPa, x1 = 0.4	799.46
367.48 K, 129810 kPa, x1 = 0.8992	799.46
367.49 K, 1150 kPa, x1 = 0.492	636.24
367.49 K, 1160 kPa, x1 = 0.801	665.36
367.49 K, 1370 kPa, x1 = 0.4	680.97
367.49 K, 1370 kPa, x1 = 0.8992	680.97
367.49 K, 4860 kPa, x1 = 0.801	672.53
367.49 K, 4870 kPa, x1 = 0.492	643.34
367.49 K, 4870 kPa, x1 = 0.611	651.91
367.49 K, 9840 kPa, x1 = 0.801	681.17
367.49 K, 9860 kPa, x1 = 0.492	651.84
367.49 K, 14860 kPa, x1 = 0.801	688.96
367.49 K, 14870 kPa, x1 = 0.492	659.41
367.49 K, 14880 kPa, x1 = 0.611	668.22
367.49 K, 19850 kPa, x1 = 0.801	696.01
367.49 K, 19860 kPa, x1 = 0.492	666.25
367.49 K, 24850 kPa, x1 = 0.801	702.51
367.49 K, 29860 kPa, x1 = 0.801	708.54
367.49 K, 34850 kPa, x1 = 0.492	683.77
367.49 K, 34860 kPa, x1 = 0.801	714.16
367.49 K, 34950 kPa, x1 = 0.4	729.18
367.49 K, 34950 kPa, x1 = 0.8992	729.18
367.49 K, 39860 kPa, x1 = 0.611	698.15
367.49 K, 44850 kPa, x1 = 0.492	693.62
367.49 K, 54840 kPa, x1 = 0.801	733.6
367.49 K, 59920 kPa, x1 = 0.611	716.21
367.49 K, 69900 kPa, x1 = 0.611	723.93
367.49 K, 79870 kPa, x1 = 0.611	731.07
367.49 K, 94730 kPa, x1 = 0.4	778.72
367.49 K, 94730 kPa, x1 = 0.8992	778.72
367.49 K, 99800 kPa, x1 = 0.611	743.84
367.49 K, 99840 kPa, x1 = 0.492	733.62
367.49 K, 104810 kPa, x1 = 0.492	736.49
367.49 K, 109800 kPa, x1 = 0.492	739.28
367.49 K, 109850 kPa, x1 = 0.611	749.68
367.49 K, 114600 kPa, x1 = 0.4	790.95
367.49 K, 114600 kPa, x1 = 0.8992	790.95
367.49 K, 114760 kPa, x1 = 0.492	742
367.49 K, 119830 kPa, x1 = 0.492	744.68
367.49 K, 124840 kPa, x1 = 0.492	747.26
367.49 K, 124860 kPa, x1 = 0.611	757.81
367.49 K, 129850 kPa, x1 = 0.492	749.77
367.49 K, 129850 kPa, x1 = 0.611	760.39
367.5 K, 24850 kPa, x1 = 0.492	672.52
367.5 K, 29850 kPa, x1 = 0.492	678.35
367.5 K, 39850 kPa, x1 = 0.801	719.44
367.5 K, 39860 kPa, x1 = 0.492	688.84
367.5 K, 44870 kPa, x1 = 0.801	724.43
367.5 K, 49850 kPa, x1 = 0.492	698.13
367.5 K, 49850 kPa, x1 = 0.801	729.14
367.5 K, 54850 kPa, x1 = 0.492	702.41
367.5 K, 59830 kPa, x1 = 0.801	737.85
367.5 K, 59870 kPa, x1 = 0.492	706.5
367.5 K, 64830 kPa, x1 = 0.492	710.35
367.5 K, 64930 kPa, x1 = 0.801	742.02
367.5 K, 69830 kPa, x1 = 0.492	714.07
367.5 K, 69910 kPa, x1 = 0.801	745.93
367.5 K, 74910 kPa, x1 = 0.801	749.67
367.5 K, 74930 kPa, x1 = 0.492	717.72
367.5 K, 79900 kPa, x1 = 0.801	753.27
367.5 K, 79920 kPa, x1 = 0.492	721.13
367.5 K, 84870 kPa, x1 = 0.801	756.74
367.5 K, 84880 kPa, x1 = 0.492	724.42
